Broadly, the inhibition is the relative decrease from the control value, in per cent.

From ChEMBL document CHEMBL4177728, “Protective effects of 6-ureido/thioureido-2,4,5-trimethylpyridin-3-ols against 4-hydroxynonenal-induced cell death in adult retinal pigment epithelial-19 cells” (2018) come the findings set out here.

The target of assay [1] is T1, NADPH oxidase 4 (Homo sapiens) (UniProt Q9NPH5).
T1 sequence (whole entry): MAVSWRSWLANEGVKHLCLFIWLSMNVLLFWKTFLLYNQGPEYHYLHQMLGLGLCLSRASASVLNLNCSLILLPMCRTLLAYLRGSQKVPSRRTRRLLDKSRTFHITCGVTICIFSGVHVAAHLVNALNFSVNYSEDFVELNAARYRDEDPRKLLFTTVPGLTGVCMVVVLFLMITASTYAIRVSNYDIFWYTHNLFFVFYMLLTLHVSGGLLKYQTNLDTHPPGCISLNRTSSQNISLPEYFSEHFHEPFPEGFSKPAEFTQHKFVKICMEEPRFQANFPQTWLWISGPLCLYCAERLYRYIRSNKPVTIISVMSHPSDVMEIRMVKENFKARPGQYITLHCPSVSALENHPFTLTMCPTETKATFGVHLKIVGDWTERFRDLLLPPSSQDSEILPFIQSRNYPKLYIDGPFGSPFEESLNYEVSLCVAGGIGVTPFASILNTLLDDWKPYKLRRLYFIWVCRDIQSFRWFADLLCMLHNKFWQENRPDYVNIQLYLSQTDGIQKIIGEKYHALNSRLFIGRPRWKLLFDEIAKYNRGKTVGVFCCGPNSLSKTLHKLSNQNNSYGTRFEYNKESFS
Description: (§1) Inhibition of NOX4 in human ARPE19 cells assessed as suppression of 4-HNE-induced superoxide production at 10 uM pre-incubated for 1 hr before 4-HNE addition for 1 hr by lucigenin chemiluminescence assay. It counts as cell-based.

Assay [2] is described as follows: Antioxidant activity assessed as DPPH radical scavenging activity at 10 uM by spectrphotomery. It counts as functional. Background: DPPH is a stable violet radical that fades when it is reduced.
Assay [3] deals with T1, NADPH oxidase 4 (Homo sapiens). Description: (§2) Inhibition of NOX4 in human ARPE19 cells assessed as protection against 4-HNE-induced cell death by measuring cell viability recovery at 10 uM incubated for 24 hrs by MTT assay. It counts as cell-based.
Assay [4] deals with ARPE-19. Description: Suppression of 4-HNE-induced apoptosis in human ARPE19 cells assessed as viable cells level at 5 uM incubated for 24 hrs by FITC Annexin V and propidium iodide staining based flow cytometry (reference value: 59.1%). It counts as functional. In general terms: In flow cytometry, cells or beads pass a laser one at a time.
Assay [5] has as its system ARPE-19. Kind of assay: Suppression of 4-HNE-induced apoptosis in human ARPE19 cells assessed as early apoptosis cells level at 20 uM incubated for 24 hrs by FITC Annexin V and propidium iodide staining based flow cytometry (reference value: 17.6%). It counts as functional.
The subject of assay [6] is ARPE-19. Description: Suppression of 4-HNE-induced apoptosis in human ARPE19 cells assessed as necrosis cells level at 10 uM incubated for 24 hrs by FITC Annexin V and propidium iodide staining based flow cytometry (reference value: 0.342%). It counts as functional.
For assay [7], the system named is ARPE-19. Description: Suppression of 4-HNE-induced apoptosis in human ARPE19 cells assessed as late apoptosis cells level at 10 uM incubated for 24 hrs by FITC Annexin V and propidium iodide staining based flow cytometry (reference value: 23%). It counts as functional.
In assay [8] the test system is ARPE-19. Description: Suppression of 4-HNE-induced apoptosis in human ARPE19 cells assessed as early apoptosis cells level at 5 uM incubated for 24 hrs by FITC Annexin V and propidium iodide staining based flow cytometry (reference value: 17.6%). It counts as functional.
The subject of assay [9] is ARPE-19. Description: Suppression of 4-HNE-induced apoptosis in human ARPE19 cells assessed as viable cells level at 20 uM incubated for 24 hrs by FITC Annexin V and propidium iodide staining based flow cytometry (reference value: 59.1%). It counts as functional.
Assay [10] relates to ARPE-19. Kind of assay: Suppression of 4-HNE-induced apoptosis in human ARPE19 cells assessed as necrosis cells level at 20 uM incubated for 24 hrs by FITC Annexin V and propidium iodide staining based flow cytometry (reference value: 0.342%). It counts as functional.
The subject of assay [11] is ARPE-19. Description: Suppression of 4-HNE-induced apoptosis in human ARPE19 cells assessed as viable cells level at 10 uM incubated for 24 hrs by FITC Annexin V and propidium iodide staining based flow cytometry (reference value: 59.1%). It counts as functional.
Assay [12] concerns ARPE-19. Kind of assay: Suppression of 4-HNE-induced apoptosis in human ARPE19 cells assessed as late apoptosis cells level at 20 uM incubated for 24 hrs by FITC Annexin V and propidium iodide staining based flow cytometry (reference value: 23%). It counts as functional.
The test system of assay [13] is ARPE-19. Description: Suppression of 4-HNE-induced apoptosis in human ARPE19 cells assessed as early apoptosis cells level at 10 uM incubated for 24 hrs by FITC Annexin V and propidium iodide staining based flow cytometry (reference value: 17.6%). It counts as functional.
For assay [14], the system named is ARPE-19. Description: Suppression of 4-HNE-induced apoptosis in human ARPE19 cells assessed as necrosis cells level at 5 uM incubated for 24 hrs by FITC Annexin V and propidium iodide staining based flow cytometry (reference value: 0.342%). It counts as functional.
In assay [15] the test system is ARPE-19. Description: Suppression of 4-HNE-induced apoptosis in human ARPE19 cells assessed as late apoptosis cells level at 5 uM incubated for 24 hrs by FITC Annexin V and propidium iodide staining based flow cytometry (reference value: 23%). It counts as functional.
Assay [16] has as its target T1, NADPH oxidase 4 (Homo sapiens). Kind of assay: Inhibition of NOX4 in human ARPE19 cells assessed as protection against 4-HNE-induced cell death by measuring cell viability recovery incubated for 24 hrs by MTT assay. It counts as cell-based. Background: Tetrazolium dyes change colour on reduction, which living cells bring about.
Assay [17] deals with NADPH oxidase 4 (Homo sapiens) (UniProt Q9NPH5). The assay is described as §1. It counts as cell-based. This is another data set of the same source.
Assay [18] shares this target. The description is as §2. It counts as cell-based. The source holds these as a separate data set.

Take `Cc1nc(NC(=O)Nc2ccc(C(F)(F)F)cc2)c(C)c(C)c1O`: the inhibition in assay [1] was 41.3%. Moreover, the Activity in assay [2] amounted to 5.9%; in assay [3], 44.2%.
On the same counts, the results for `Cc1cccc(C(C)(C)C)c1NC(=O)Nc1nc(C)c(O)c(C)c1C` are 8.9%, 3.3% and 12.8%.
The matching figures for `Cc1nc(NC(=S)NC(=O)c2ccccc2)c(C)c(C)c1O`: 68.7%, 4.9% and 63.1%.
The matching figures for `CCNC(=S)Nc1nc(C)c(O)c(C)c1C`: 36.7%, 13.3% and 44.9%.
Regarding `COc1ccc(NC(=O)Nc2nc(C)c(O)c(C)c2C)cc1`, the inhibition in [1] was 5.8%. Further, the Activity was determined as 7.4% in [2] and 10.8% in assay [3].
The matching figures for `CCCCCCNC(=S)Nc1nc(C)c(O)c(C)c1C`: 17.9%, 16.5% and 22.8%.
Consider `Cc1nc(NC(=O)Nc2ccc([N+](=O)[O-])cc2)c(C)c(C)c1O`, for which, in [1], the inhibition came to 8.3%. Moreover, the results for the Activity in assay [2] and in assay [3] were 5.2% and 13.9%, respectively.
Turning to `Cc1ccc(NC(=O)Nc2nc(C)c(O)c(C)c2C)cc1`, the inhibition in [1] turned out to be 6.2%. The Activity in assay [2] stood at 3.4%; in assay [3], 5.3%.
The matching figures for `Cc1nc(NC(=S)Nc2ccc(Cl)c(Cl)c2)c(C)c(C)c1O`: 19%, 6.6% and 24.9%.
Turning to `c1ccc(Cn2nnc3c(Sc4nc5ccccc5o4)ncnc32)cc1`, the Activity in assay [4] worked out at 80.4%; in assay [5] it was 2.87%; in assay [2], 6.9%; in assay [6] it was 0.254%; in assay [7], 4.42%; in [8] it was 11.8%. For the same molecule, the Activity in assay [9] came to 95.2%; in assay [10], 0.145%; in assay [11], 89.8%; in assay [12], 1.81%; in assay [13] it was 5.62%; in [3] it was 79.4%. The Activity came to 0.25% in [14] and 7.66% in [15]. The inhibition in [1] was found to be 78.7%.
In the case of `Cc1ccc(NC(=S)Nc2nc(C)c(O)c(C)c2C)cc1`, the inhibition in assay [1] is 41.3%. Moreover, the Activity in assay [2] came to 6.9%; in assay [3], 54%.
The matching figures for `Cc1nc(NC(=O)Nc2ccc(Cl)cc2)c(C)c(C)c1O`: 30.8%, 6.2% and 43.6%.
`COc1ccc(NC(=S)Nc2nc(C)c(O)c(C)c2C)cc1`: the inhibition in [1] came to 17.7%. Also, the Activity was determined as 4.7% in [2] and 23.2% in [3].
On the same counts, the results for `Cc1nc(NC(=O)Nc2ccc(F)cc2)c(C)c(C)c1O` are 6.9%, 7.4% and 6.2%.
On the same counts, the results for `Cc1nc(NC(=O)NCc2ccccc2)c(C)c(C)c1O` are 4.6%, 6% and 10.5%.
The matching figures for `Cc1nc(NC(=S)Nc2cccc(C(F)(F)F)c2)c(C)c(C)c1O`: 20.1%, 7.6% and 29.6%.
For the molecule `Cc1nc(NC(=O)Nc2ccccc2)c(C)c(C)c1O`, the inhibition in assay [1] was 7.1%. For the same molecule, the Activity in [2] is 5.8%; in assay [3], 8.9%.
The matching figures for `Cc1nc(NC(=O)Nc2ccc(OC(F)(F)F)cc2)c(C)c(C)c1O`: 51.1%, 6.1% and 58.4%.
With `Cc1nc(NC(=S)Nc2ccc(Br)cc2)c(C)c(C)c1O`, the inhibition in assay [1] turned out to be 22.8%. For the same molecule, the Activity was found to be 7.4% in [2] and 33.5% in assay [3].
Turning to `Cc1nc(NC(=S)Nc2ccc(Cl)cc2)c(C)c(C)c1O`, the inhibition in assay [1] came out at 13%. Also, the Activity in assay [2] worked out at 6.5%; in [3], 12.8%.
With `CCCNC(=O)Nc1nc(C)c(O)c(C)c1C`, the inhibition in assay [1] worked out at 9.4%. Besides, the Activity in assay [2] is 5.5%; in assay [3], 12.5%.
For `CCCCCCCCNC(=S)Nc1nc(C)c(O)c(C)c1C`, the inhibition in assay [1] was found to be 40.7%. In addition, the Activity in assay [2] amounted to 14.6%; in [3], 45.9%.
The matching figures for `Cc1nc(NC(=S)NC(C)C)c(C)c(C)c1O`: 13.9%, 5.5% and 14.7%.
In the case of `CCCCNC(=S)Nc1nc(C)c(O)c(C)c1C`, the Activity came to 88.6% in assay [4]; 0.112% in assay [5]; 5.9% in assay [2]; 0.134% in assay [6]; 3.38% in assay [7]; 6.84% in assay [8]. For the same molecule, the Activity in assay [9] was 99.7%; in assay [10], 0.067%; in assay [11], 93.4%; in [12], 0.079%; in [13] it was 3.06%; in assay [3] it was 85.1%. Moreover, the Activity in [14] is 0.335%; in [15], 4.24%. Further, the values for the inhibition in assay [1] and in [16] were 79.5% and “Dose-dependent effect”, respectively.
As for `Cc1ccc(S(=O)(=O)NC(=O)Nc2nc(C)c(O)c(C)c2C)cc1`, the inhibition in assay [1] amounted to 28.6%. The Activity in [2] turned out to be 5.7%; in [3] it was 32.5%.
The matching figures for `Cc1nc(NC(=S)Nc2ccc(C(F)(F)F)cc2)c(C)c(C)c1O`: 30.5%, 6.7% and 40.4%.
On the same counts, the results for `Cc1nc(NC(=O)Nc2ccc(C(C)C)cc2)c(C)c(C)c1O` are -1.3%, 4.2% and -5.1%.
On the same counts, the results for `Cc1nc(NC(=S)NC2CCCCC2)c(C)c(C)c1O` are 61.9%, 7.1% and 62.2%.
Take `Cc1nc(NC(=O)Nc2cccc3ccccc23)c(C)c(C)c1O`: in assay [1], the inhibition amounted to 2.4%. Besides, the Activity in [2] was found to be 6.3%; in assay [3], 7.3%.
As for `Cc1nc(NC(=O)NC(=O)c2ccccc2)c(C)c(C)c1O`, in assay [1], the inhibition came to 8.8%. The Activity is 6.7% in [2] and 1.5% in [3].
The matching figures for `Cc1nc(NC(=S)Nc2ccccc2)c(C)c(C)c1O`: 2.3%, 5.6% and 8.9%.
On to VITAMIN E, for which the inhibition in assay [17] was 3.9%. The figures for the Activity in [2] and in [18] were 10.2% and 9.8%, respectively.
For the molecule `Cc1nc(NC(=S)Nc2ccc([N+](=O)[O-])cc2)c(C)c(C)c1O`, the inhibition was 71.8% in assay [1] and “Dose-dependent effect” in assay [16]. The Activity turned out to be 5.5% in assay [2] and 77.7% in assay [3].
`Cc1nc(NC(=O)Nc2ccc(Br)cc2)c(C)c(C)c1O`: the inhibition in assay [1] came out at 0.9%. The Activity is 4% in [2] and 7.3% in [3].
For the molecule `O=C1O[C@H]([C@@H](O)CO)C(O)=C1O`, in [1], the inhibition was 3.4%. In addition, the Activity in assay [2] was 10.2%; in assay [3], 8.2%.
